Data published in PMC11519575 (Nature Communications, 2024).

What was measured:
LigM = LigM (Sphingobium sp. SYK-6, UniProt G2IQS7); test: whole-cell consumption; format: cell-based; conditions: tetrahydrofolate cofactor; with ligH and metF in R. eutropha H16
VanAB = biological target: T1, VanAB (Pseudomonas putida, UniProt Q88GI6); test: whole-cell consumption; format: cell-based; conditions: R. eutropha H16 expressing vanAB, sole carbon source, 30 °C
T1 sequence (Q88GI6 1-355): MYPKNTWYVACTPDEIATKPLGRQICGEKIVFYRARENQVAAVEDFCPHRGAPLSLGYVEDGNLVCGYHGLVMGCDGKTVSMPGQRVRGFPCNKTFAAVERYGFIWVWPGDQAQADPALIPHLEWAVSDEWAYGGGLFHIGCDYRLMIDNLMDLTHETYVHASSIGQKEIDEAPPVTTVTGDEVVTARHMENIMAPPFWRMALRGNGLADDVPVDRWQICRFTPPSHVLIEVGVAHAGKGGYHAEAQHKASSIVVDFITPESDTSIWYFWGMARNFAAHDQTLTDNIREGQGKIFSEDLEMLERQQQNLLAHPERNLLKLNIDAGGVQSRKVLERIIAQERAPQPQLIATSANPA
T1 sequence (Q88GI5 1-316 partner): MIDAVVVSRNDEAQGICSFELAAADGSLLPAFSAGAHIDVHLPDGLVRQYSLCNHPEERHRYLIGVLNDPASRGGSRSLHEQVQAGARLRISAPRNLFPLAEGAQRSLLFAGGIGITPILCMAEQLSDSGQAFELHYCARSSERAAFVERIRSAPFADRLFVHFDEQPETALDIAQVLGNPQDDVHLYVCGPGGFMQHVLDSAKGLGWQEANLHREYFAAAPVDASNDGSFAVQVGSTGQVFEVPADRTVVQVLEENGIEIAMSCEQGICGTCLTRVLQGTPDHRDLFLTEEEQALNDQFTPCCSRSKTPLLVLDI

Sequence of LigM (G2IQS7 whole entry): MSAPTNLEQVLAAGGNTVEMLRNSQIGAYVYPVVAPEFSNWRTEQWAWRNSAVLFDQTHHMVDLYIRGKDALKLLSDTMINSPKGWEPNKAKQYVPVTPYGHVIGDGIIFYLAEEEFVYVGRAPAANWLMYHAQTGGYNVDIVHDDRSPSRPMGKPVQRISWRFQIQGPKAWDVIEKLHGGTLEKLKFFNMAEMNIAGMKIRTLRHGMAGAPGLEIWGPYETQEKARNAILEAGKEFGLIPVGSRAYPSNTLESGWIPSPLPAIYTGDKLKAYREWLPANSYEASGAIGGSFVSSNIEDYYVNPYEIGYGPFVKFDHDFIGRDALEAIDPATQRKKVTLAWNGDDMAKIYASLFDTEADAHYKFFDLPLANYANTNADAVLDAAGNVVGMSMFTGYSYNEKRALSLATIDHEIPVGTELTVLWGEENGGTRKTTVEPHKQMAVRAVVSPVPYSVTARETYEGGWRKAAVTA

COc1cc(C(=O)O)ccc1O [vanillic acid]
whole-cell consumption (HPLC) and growth (LigM): the demethylation process of the optimized LigM system is still the main rate-limiting step | whole-cell consumption (HPLC) and growth (VanAB): expression of vanAB could enable the strain to use vanillic acid
